Values quoted from earlier work in patent US9901554B2, “Biodegradable compositions suitable for controlled release” (INGELL TECHNOLOGIES HOLDING B.V., priority 2011, dated 2018).
Where two headings read alike, the source gives them in different places.

Compound	solubility in water (small molecules and peptide)	solubility in water (model proteins)
bovine serum albumin: water soluble model protein (Sigma)	–	above 10000 μg/ml
lysozyme: water soluble model protein of around 16 kDa (Sigma)	–	above 10000 μg/ml
CN(CC(O)CO)C(=O)c1c(I)c(NC(=O)C(CO)CO)c(I)c(C(=O)N(C)CC(O)CO)c1I (centres unmarked) [iobitridol]	above 5000 ug/ml	–

Now from value to compound, other results behind:

solubility in water (small molecules and peptide)	Compound	solubility in water (model proteins)
below 1 ug/ml	Cc1ccc(-c2cc(C(F)(F)F)nn2-c2ccc(S(N)(=O)=O)cc2)cc1 [celecoxib]	–
below 20 ug/ml	CC1(C)O[C@@H]2C[C@H]3[C@@H]4CCC5=CC(=O)C=C[C@]5(C)[C@@]4(F)[C@@H](O)C[C@]3(C)[C@]2(C(=O)CO)O1 [triamcinolone acetonide]	–
